According to patent US20160051543A1 (CHANRX CORPORATION, priority 2013, published 2016):

Assays:
[1] = cited from earlier work
[2] = test system: conversion to normal sinus rhythm; test: Human plasma concentration charted against conversion to normal sinus rhythm; type: in vivo
Experimental: This study favorable compares favorably to human models where plasma concentration is charted against conversion to normal sinus rhythm. […] However, most conversions occurred in the range of about 60 ng/ml. Accordingly, modifying doses to reach 60 ng/ml or higher is preferred for effective conversion to normal sinus rhythm.

[3] = cited from earlier work; remark: listed apart in the source
[4] = Daily dosing for 7 days in four patients (Example 4); type: in vivo, human
[5] = test system: recent onset symptomatic AF/AFL; test: Double-blinded placebo-controlled study, conversion of recent onset symptomatic AF/AFL to sinus rhythm (Example 6); type: in vivo, human
Experimental: (§1) The vanoxerine or identical appearing placebo was randomly assigned and administered in a double-blinded fashion.
Accordingly, a measurement of the improvement comprises a comparison to the rate of conversion of placebo, wherein the improvement is based on the percent increase in conversion over placebo. The 200 mg, having an improvement of conversion of 38%, 96%, and 55% at the above time points, 300 mg: 207%, 126%, and 68%, and the 400 mg: 300%, 230%, and 121%.
Definition of “pure” atrial flutter: only Atrial Flutter (no AF) seen at −30, −15, and 0 time points. Conversion at any time within 24 hours.
The highest oral dose of 400 mg achieved a conversion rate of 76% at 8 hours and 84% within 24 hours.

[6] = Adverse events in the AF/AFL conversion study (Example 6); type: in vivo, human
Description: as §1

[7] = Plasma concentrations after a single 300 mg dose of vanoxerine in 25 patients (Example 1); type: in vivo, human; conditions: any time point
Experimental: Each patient gave samples before administration of their dose, and then again at nine further time points, 30 minutes after administration, 1, 2, 3, 4, 6, 8, 12, and 24 hours post administration.

clinical = conditions: human, in vivo
Description: The results are listed below in Table 7.

[8] = human, in vivo
Experimental: A standardized meal was served 15 minutes prior to each dosing.
The non-linear kinetics may be due to increasing bioavailability at higher doses based on a saturation of first pass metabolism.

[9] = between patients; cited from earlier work

Fc1ccc(C(OCCN2CCN(CCCc3ccccc3)CC2)c2ccc(F)cc2)cc1 [Vanoxerine, 1-[2-[bis(4-fluorophenyl)methoxy]ethyl]-4-(3-phenylpropyl)piperazine]
AUC ([1]; fasting (no food intake for eight hours)): lowest AUC
Cmax ([1]; high-fat diet (about 73 g fat) versus fasting and low-fat): significantly increased Cmax
Time the concentration remains elevated ([1]; high-fat diet): four to six hours
tmax ([1]; high-fat diet): nearly two and a half hours
Concentration at which most conversions occurred [2]: about 60 ng/ml
Plasma half-life ([3]; in vivo): about 22 hours
Steady state achieved within ([3]; oral dosing, some cases): ≤ 3 days
Systolic blood pressure and heart rate ([4]; 100 mg for 7 days): increases in systolic blood pressure and heart rate were seen
Time to steady-state levels ([4]; all patients, 50, 100, 150 mg daily): within one week
Improvement of conversion (percent increase over placebo) ([5]; 200 mg, 0-4 hours): 38%
Improvement of conversion (percent increase over placebo) ([5]; 200 mg, 0-8 hours): 96%
Improvement of conversion (percent increase over placebo) ([5]; 200 mg, 0-24 hours): 55%
Improvement of conversion (percent increase over placebo) ([5]; 300 mg, 0-24 hours): 68%
Improvement of conversion (percent increase over placebo) ([5]; 400 mg, 0-4 hours): 300%
Improvement of conversion (percent increase over placebo) ([5]; 400 mg, 0-8 hours): 230%
Dose dependence of conversion to sinus rhythm ([5]; doses of 200, 300 and 400 mg): highly statistically significant dose dependent increase
Number of adverse events reported ([6]; 200 mg (22)): 8 AEs
Number of serious adverse events ([6]; 200 mg (22)): 1 SAE
Number of adverse events reported ([6]; 300 mg (25)): 12 AEs
Number of adverse events reported ([6]; 400 mg (25)): 23 AEs
Number of serious adverse events ([6]; 400 mg (25)): 1 SAE
Tolerability ([6]; all doses): well tolerated at all doses
1:1 AFL post dose ([6]; any subject): No 1:1 AFL seen post dose in any subject
Proarrhythmia ([6]; conversion of recent onset symptomatic AF and AFL): absence of proarrhythmia
Serious adverse events in the study ([6]; one at 200 mg, one at 400 mg, neither related to the study drug): two
Highest plasma level, low concentration group [7]: ~40 ng/mL
PK linearity / dose proportionality (clinical): linear and dose proportional
TMax (mean +− SD) (clinical): TMax 1.27 +− 0.5 hr
TMax range (clinical; 50 mg): (0.5-2.0) hr
half-life (clinical; 50 mg): 4.71 to 111 h
half-life (clinical; 75 mg): 10.3 to 117 h
half-life (clinical; 100 mg): 5.56 to 125 h
All patients achieved steady state after [8]: 7 to 10 days
Dose proportionality of steady-state serum levels [8]: disproportionately and statistically greater levels at higher doses
Steady-state plasma concentrations achieved after [8]: 3 days
Difference in Cmax concentrations or AUC between slower and higher metabolism groups [9]: ≥ 10 fold
